Experimental data from ChEMBL document CHEMBL6087414, “Discovery of 4-(4-(3-(1-(2-(piperidin-1-yl)ethyl)-1H-benzo[d]imidazole-2-yl)isoxazol-5-yl)phenyl)morpholine as a novel c-Myc inhibitor against lung cancer in vitro and in vivo” (Eur J Med Chem, 2025).
The source made the active and inactive calls. The calls are words filed in the database; no cut-off is given here.

How the values were obtained:
A549 [1] = assay: Cytotoxicity against human A549 cells assessed as inhibition of cell viability incubated for 48 hrs by CCK8 assay; type: functional, cell-based; settings: A549, 48 h
A549 [2] = assay: Induction of apoptosis in human A549 cells assessed as late apoptotic cells at 2.5 uM incubated for 48 hrs by Annexin V-FITC/PI staining based flow cytometry (reference value: 5.79 %); type: functional
A549 [3] = assay: Induction of apoptosis in human A549 cells assessed as decrease in Bcl-2 level at 2.5 to 10 uM incubated for 48 hrs by Western blot analysis; type: functional, cell-based; settings: dose 2.5-10 µM
[4] = molecular target: Myc proto-oncogene protein (Homo sapiens) (UniProt P01106); assay: Inhibition of c-Myc in human NCI-H1299 cells by Western blot analysis; type: cell-based; settings: dose <= 10.0 µM
[5] = molecular target: Myc proto-oncogene protein (Homo sapiens) (UniProt P01106); assay: Inhibition of c-Myc in human A549 cells by Western blot analysis; type: cell-based; settings: dose <= 10.0 µM
A549 [6] = assay: Effect on c-Myc mRNA expression in human A549 cells at 10 uM by Q-PCR analysis; type: functional, cell-based
A549 [7] = assay: Induction of apoptosis in human A549 cells assessed as necrotic cells at 2.5 uM incubated for 48 hrs by Annexin V-FITC/PI staining based flow cytometry (reference value: 1.41 %); type: functional
A549 [8] = assay: Induction of apoptosis in human A549 cells assessed as necrotic cells at 10 uM incubated for 48 hrs by Annexin V-FITC/PI staining based flow cytometry (reference value: 1.41 %); type: functional
[9] = molecular target: Myc proto-oncogene protein (Homo sapiens) (UniProt P01106); assay: Inhibition of c-Myc in human A549 cells assessed as decrease in half life at 10 uM pretreated for 12 hrs followed by CHX treatment for 1 to 2 hrs by Western blot analysis; type: cell-based; settings: time 13-14 hrs
A549 [10] = assay: Induction of apoptosis in human A549 cells at 5 uM incubated for 48 hrs by Annexin V-FITC/PI staining based flow cytometry relative to control; type: functional
A549 [11] = assay: Induction of apoptosis in human A549 cells at 15 uM incubated for 48 hrs by Annexin V-FITC/PI staining based flow cytometry relative to control; type: functional
A549 [12] = assay: Induction of apoptosis in human A549 cells assessed as early apoptotic cells at 2.5 uM incubated for 48 hrs by Annexin V-FITC/PI staining based flow cytometry (reference value: 5.02 %); type: functional
A549 [13] = assay: Induction of apoptosis in human A549 cells assessed as activation of caspase-3 cleavage at 2.5 to 10 uM incubated for 48 hrs by Western blot analysis; type: functional, cell-based; settings: dose 2.5-10 µM
[14] = Cytotoxicity against human BEAS-2B cells assessed as cell viability upto 20 uM incubated for 48 hrs by CCK8 assay relative to control; type: toxicity, cell-based; settings: read-out: Activity
A549 [15] = assay: Induction of apoptosis in human A549 cells assessed as late apoptotic cells at 5 uM incubated for 48 hrs by Annexin V-FITC/PI staining based flow cytometry (reference value: 5.79 %); type: functional
A549 [16] = assay: Induction of apoptosis in human A549 cells assessed as increase in BAX level at 2.5 to 10 uM incubated for 48 hrs by Western blot analysis; type: functional, cell-based; settings: dose 2.5-10 µM
NCI-H1299 = assay: Cytotoxicity against human NCI-H1299 cells assessed as inhibition of cell viability incubated for 48 hrs by CCK8 assay; type: functional, cell-based; settings: NCI-H1299, 48 h
A549 [17] = assay: Induction of apoptosis in human A549 cells incubated for 48 hrs by Annexin V-FITC/PI staining based flow cytometry; type: functional, cell-based; settings: dose 5-15 µM
A549 [18] = assay: Induction of apoptosis in human A549 cells assessed as necrotic cells at 5 uM incubated for 48 hrs by Annexin V-FITC/PI staining based flow cytometry (reference value: 1.41 %); type: functional
A549 [19] = assay: Induction of apoptosis in human A549 cells assessed as early apoptotic cells at 5 uM incubated for 48 hrs by Annexin V-FITC/PI staining based flow cytometry (reference value: 5.02 %); type: functional
A549 [20] = assay: Induction of apoptosis in human A549 cells assessed as early apoptotic cells at 10 uM incubated for 48 hrs by Annexin V-FITC/PI staining based flow cytometry (reference value: 5.02 %); type: functional
A549 [21] = assay: Induction of apoptosis in human A549 cells assessed as late apoptotic cells at 10 uM incubated for 48 hrs by Annexin V-FITC/PI staining based flow cytometry (reference value: 5.79 %); type: functional
A549 [22] = assay: Induction of apoptosis in human A549 cells assessed as increase in BAD level at 2.5 to 10 uM incubated for 48 hrs by Western blot analysis; type: functional, cell-based; settings: dose 2.5-10 µM
A549 [23] = assay: Induction of apoptosis in human A549 cells assessed as viable cells at 10 uM incubated for 48 hrs by Annexin V-FITC/PI staining based flow cytometry (reference value: 87.8 %); type: functional; settings: read-out: Activity
A549 [24] = assay: Induction of apoptosis in human A549 cells assessed as viable cells at 2.5 uM incubated for 48 hrs by Annexin V-FITC/PI staining based flow cytometry (reference value: 87.8 %); type: functional; settings: read-out: Activity
A549 [25] = assay: Induction of apoptosis in human A549 cells assessed as viable cells at 5 uM incubated for 48 hrs by Annexin V-FITC/PI staining based flow cytometry (reference value: 87.8 %); type: functional; settings: read-out: Activity
[26] = molecular target: Myc proto-oncogene protein (Homo sapiens) (UniProt P01106); assay: Inhibition of c-Myc in human A549 cells at 10 uM incubated for 24 hrs in presence of MG132 by Western blot analysis; type: cell-based
A549 [27] = assay: Induction of apoptosis in human A549 cells assessed as activation of caspase-9 cleavage at 2.5 to 10 uM incubated for 48 hrs by Western blot analysis; type: functional, cell-based; settings: dose 2.5-10 µM

Chain of Myc proto-oncogene protein (Homo sapiens) (P01106 whole entry): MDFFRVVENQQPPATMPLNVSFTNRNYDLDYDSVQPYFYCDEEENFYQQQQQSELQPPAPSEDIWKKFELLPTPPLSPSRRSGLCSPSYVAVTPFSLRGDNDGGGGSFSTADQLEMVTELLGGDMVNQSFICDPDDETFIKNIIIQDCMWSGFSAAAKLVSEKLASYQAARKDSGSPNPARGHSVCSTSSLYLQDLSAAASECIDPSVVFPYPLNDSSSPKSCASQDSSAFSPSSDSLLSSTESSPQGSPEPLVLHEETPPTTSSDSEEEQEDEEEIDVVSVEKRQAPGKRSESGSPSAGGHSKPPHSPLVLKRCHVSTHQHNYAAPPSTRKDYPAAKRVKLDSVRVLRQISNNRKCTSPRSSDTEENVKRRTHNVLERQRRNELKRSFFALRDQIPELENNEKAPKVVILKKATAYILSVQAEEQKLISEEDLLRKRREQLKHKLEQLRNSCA

For `c1ccc2c(c1)nc(-c1cc(-c3ccc(N4CCOCC4)cc3)on1)n2CCN1CCCC1`, the IC50 (A549 [1]) was 6.32 µM, the Activity (A549 [2]) was 17.7% and the Activity (A549 [3]) was “Active”. The inhibition [4] was “Dose-dependent-effect”, the inhibition [5] was “Dose-dependent-effect” and the Activity (A549 [6]) was “inactive”. For the same compound, the Activity (A549 [7]) was 5.52%, the Activity (A549 [8]) was 3.66% and the inhibition [9] was “Active”. For the same compound, the Activity (A549 [10]) was 22.3%, the Activity (A549 [11]) was 53% and the Activity (A549 [12]) was 4.67%. For the same compound, the Activity (A549 [13]) was “Active”, the viability at 48 h, 20 µM [14] was over 90% and the Activity (A549 [15]) was 19.5%. For the same compound, the Activity (A549 [16]) was “Active”, the IC50 (NCI-H1299) was 11.4 µM and the Activity (A549 [17]) was “Dose-dependent-effect”. The Activity (A549 [18]) was 2.44%, the Activity (A549 [19]) was 11.7% and the Activity (A549 [20]) was 7.88%. The Activity (A549 [21]) was 45.2%, the Activity (A549 [22]) was “Active” and the viability at 10 µM (A549 [23]) was 43.2%. The viability at 2.5 µM (A549 [24]) was 72.1%, the viability at 5 µM (A549 [25]) was 66.3% and the inhibition [26] was “inactive”. For the same compound, the Activity (A549 [27]) was “Active”.
For `c1ccc2c(c1)nc(-c1cc(-c3ccc(N4CCOCC4)cc3)on1)n2CCN1CCCCCC1`, the IC50 (A549 [1]) was 9.94 µM and the IC50 (NCI-H1299) was 27.6 µM.
`CN(C)c1ccc(-c2cc(-c3nc4ccccc4n3CCN3CCOCC3)no2)cc1` gave an IC50 (A549 [1]) of 12.7 µM and an IC50 (NCI-H1299) of 17.7 µM.
`CCc1ccc(C(=O)n2c(-c3cc(-c4ccc(N5CCOCC5)cc4)on3)nc3ccccc32)cc1` showed an IC50 (A549 [1]) of 23.6 µM and an IC50 (NCI-H1299) of 27.6 µM.
`CN(C)c1ccc(-c2cc(-c3nc4ccccc4n3CCN3CCCCC3)no2)cc1` gave an IC50 (A549 [1]) of 9.22 µM and an IC50 (NCI-H1299) of 13.1 µM.
Compound `CN(C)CCn1c(-c2cc(-c3ccc(N4CCOCC4)cc3)on2)nc2ccccc21` has an IC50 (A549 [1]) of 8.92 µM and an IC50 (NCI-H1299) of 18.9 µM.
Compound `CN(C)c1ccc(-c2cc(-c3nc4ccccc4n3CCN3CCCCCC3)no2)cc1` has an IC50 (A549 [1]) of 11.4 µM and an IC50 (NCI-H1299) of 18.2 µM.
Compound `O=C(c1ccccc1)n1c(-c2cc(-c3ccc(F)cc3)on2)nc2ccccc21` has an IC50 (A549 [1]) of over 40 µM and an IC50 (NCI-H1299) of 23.9 µM.
Compound `c1ccc2c(c1)nc(-c1cc(-c3ccc(N4CCCCC4)cc3)on1)n2CCN1CCOCC1` has an IC50 (A549 [1]) of 11.2 µM and an IC50 (NCI-H1299) of 23.8 µM.
With `c1ccc2c(c1)nc(-c1cc(-c3ccc(N4CCCCC4)cc3)on1)n2CCCN1CCOCC1` the IC50 (A549 [1]) was 13.8 µM and the IC50 (NCI-H1299) was 24.2 µM.
Compound `c1ccc2c(c1)nc(-c1cc(-c3ccc(N4CCCC4)cc3)on1)n2CCN1CCCCCC1` has an IC50 (A549 [1]) of 21.2 µM and an IC50 (NCI-H1299) of 36.3 µM.
For `c1ccc2c(c1)nc(-c1cc(-c3ccc(N4CCCCCC4)cc3)on1)n2CCN1CCOCC1`, the IC50 (A549 [1]) was 10.9 µM and the IC50 (NCI-H1299) was 21 µM.
With `CN(C)c1ccc(-c2cc(-c3nc4ccccc4n3CCCN3CCOCC3)no2)cc1` the IC50 (A549 [1]) was 13.6 µM and the IC50 (NCI-H1299) was 17 µM.
For `CN(C)CCCn1c(-c2cc(-c3ccc(N(C)C)cc3)on2)nc2ccccc21`, the IC50 (A549 [1]) was 20.6 µM and the IC50 (NCI-H1299) was 17.9 µM.
Compound `c1ccc2c(c1)nc(-c1cc(-c3ccc(N4CCCCC4)cc3)on1)n2CCN1CCCCC1` has an IC50 (A549 [1]) of 9.23 µM and an IC50 (NCI-H1299) of 21.5 µM.
For `c1ccc(Cn2c(-c3cc(-c4ccc(N5CCOCC5)cc4)on3)nc3ccccc32)cc1`, the IC50 (A549 [1]) was over 40 µM and the IC50 (NCI-H1299) was over 40 µM.
Compound `c1ccc2c(c1)nc(-c1cc(-c3ccc(N4CCCCCC4)cc3)on1)n2CCCN1CCOCC1` has an IC50 (A549 [1]) of 20.6 µM and an IC50 (NCI-H1299) of 22.3 µM.
With `c1ccc2c(c1)nc(-c1cc(-c3ccc(N4CCOCC4)cc3)on1)n2CCN1CCOCC1` the IC50 (A549 [1]) was 8.46 µM and the IC50 (NCI-H1299) was 21 µM.
`CCN(CC)CCCn1c(-c2cc(-c3ccc(N4CCOCC4)cc3)on2)nc2ccccc21` showed an IC50 (A549 [1]) of 8.53 µM and an IC50 (NCI-H1299) of 22.1 µM.
`c1ccc2c(c1)nc(-c1cc(-c3ccc(N4CCCCC4)cc3)on1)n2CCN1CCCC1` gave an IC50 (A549 [1]) of 7.68 µM and an IC50 (NCI-H1299) of 19 µM.
`Cc1cc(C)cc(C(=O)n2c(-c3cc(-c4ccc(N5CCOCC5)cc4)on3)nc3ccccc32)c1` showed an IC50 (A549 [1]) of 19.2 µM and an IC50 (NCI-H1299) of over 40 µM.
Work on `O=C(c1ccccc1)n1c(-c2cc(-c3ccc(N4CCOCC4)cc3)on2)nc2ccccc21` yielded an IC50 (A549 [1]) of 20.9 µM and an IC50 (NCI-H1299) of 19.5 µM.
